Test results published in patent US8741965B2, “Method of administering a pheromone composition to an animal to modify the animals behavior over an extended period of time” (Sergeant's Pet Care Products, Inc., priority 2011, dated 2014).
“Also recorded” adds a separate entry of the source.

Key:
anxious dogs = assay: Efficacy of pheromone/INTEROMONE collars on dog heart rate, 24 h baseline and after Fog Horn startle (Example 4); assay type: in vivo
Protocol: Heart rate and surface temperature were measured by telemetry.
The study was conducted in two phases: Baseline and after startle. In the baseline study each of the four dogs received each collar treatment in random order for two days at a time. Heart rate and surface temperature were collected each 5 seconds for 24 hours. In the second phase, dogs were startled with a 110 dB Fog Horn and heart rate was measured each 1 second for 10 minutes before and 2 hours after startle.

[1] = system: dogs diagnosed as nervous; assay: Collars and heart rate of nervous dogs, 24 h basal and fog horn startle (Example 5); assay type: in vivo, dog; conditions: collar
Protocol: Dogs diagnosed as being “nervous” were treated with four different treatments on different days: Placebo collar, Pheromone only collar (Serg), Rabbit INTEROMONE® collar (RP) (prepared in accordance with Example 1), and INTEROMONE® Plus Pheromone collar (Serg+RP) (prepared according to formulation provided in Example 3). Each dog experienced a given collar for 24 hours. Heart rate of the dogs was measured by remote telemetry. FIG. 22 illustrates the effects of the collars on heart rate collected over a period of 24 hours.
Each dog experienced a loud noise (fog horn) during a 2 second blast. The noise startled the dogs. Each dog had the collar on before, during and after the startle experience. […] The data illustrates that Serg alone had no effect on the startled dog heart rate. […] The data further indicate that only the RP is effective in reducing the heart rate of startled dogs.

dog = assay: Room diffuser containing rabbit pheromone, use on dogs (Example 8); assay type: in vivo; conditions: 0.02% 2-methylbut-2-enal
Description: A room diffuser formulation containing rabbit pheromone can be prepared according to typical industry techniques described above. Table 4 is the list of ingredients that can be used to prepare a diffuser formulation comprising a rabbit pheromone.

nervous dogs = assay: Example 11 Study 1: baseline behavior and heart rate after collar or spray; assay type: in vivo, dog; conditions: for pacing-walking behavior of individual dogs: Study 1, FIG. 3A; for sitting behavior of individual dogs: FIG. 3C; for heart rate of individual dogs: Study 1, dogs 1-4, FIG. 6; for overall dog heart rate and its decline: dogs 1-4, two hours after collar or spray, FIGS. 4, 5
Description: (§1) Eight dogs were obtained from a local contract research facility and assessment was made as to general dog health, behavior and heart rate. The dogs were estimated to be 2 to 7 years of age, mixed breed, and weighed averagely 8.1±0.18 kg at the start of the studies. […] Upon arrival each dog was bathed using shampoo containing flea and tick medicine (Hartz Mountain Corp. Secaucus, N.J. USA), and their body hair was shaved. Each dog was kept in a single room, which had 100% fresh air intake and exhaust. The dogs were fed twice (am and pm) per day ad libitum. At that time, the room was cleaned and the dogs obtained extra exercise. Water was available ad libitum.
(§2) Dog behavior was captured on video media at a sampling rate of 30 frames per second. Video records were reviewed in real time (with tape playing 30 frames per second). A scan sampling method was used to record dog behaviors each minute or each 5 minutes depending on the particular study. If the sample period was 120 minutes with four periods (0-30=0, 30-60=30, 60-90=60, and 90-120-90 min), then a scan sample was recorded each 1 minute. If the sample period was 24 hours, then the scan sample was collected each 5 minutes and summarized each hour. For example, pacing is when a dog walks in a stereotyped manner for minutes to hours. Because it was not easy to distinguish walking from pacing, the behaviors were merged. In addition, the video records could not clearly distinguish lying down and awake versus lying down and sleeping, therefore there was no separate description for these two behaviors.
(§3) Heart rate during the studies was measured by the use of a non-invasive telemetry system (Data Science International, St. Paul, Minn., USA). Leads were placed in contact with the dogs' shaved skin. Sensors measured heart rate, surface temperature and general activity. Data were transmitted to a receiving computer in another room. The sampling rate varied with the study, but was 5 seconds for the first two hours after treatments and then each 1 minute for 24 hours (depending on the particular study). For surface temperature measurements of the dog subjects, a thermistor was located against the skin of each dog. It recorded the surface temperature to the neared 0.1° C. on the same interval as the heart rate data.
(§4) Behavior and physiological data (heart rate and surface temperature) were analyzed by least squares analysis of variance using SAS (2011) software and the general linear models procedures. The experimental design of each study was a specialized randomized complete block in a Latin square design with data collected as a split plot over time. Dogs represented the blocks. Each dog received each treatment randomly in successive days or weeks. The statistical model included effects of treatment (TRT), dog, dog by treatment (TRT*DOG; error term used to assess treatment and dog effects), time (HR), treatment by time (TRT*HR), and residual error (SE; used to test remaining effects). Behavior data were collected and analyzed as counts per time period, but for clarity of presentation, the data are reported as percentage of time dogs engaged in each behavior.
In Study 1, baseline heart rate data were collected while the dogs each experienced 4 different treatments—a placebo collar (PLACEBO), Pheromone “H” Collar (SERG), Dog Appeasing Pheromone in collar form (DAPC) and the Rabbit Pheromone (RP; 1 μg/mL) formulated into a spray in accordance with Example 8. Each of the four treatments was given to each dog in a random order, with the treatment changing each week. Baseline heart rate and behavior data were collected for 30 minutes before each treatment application (see Table 8) and 2 hours after (see Table 9) (expressed in % of time).

nervous dogs (dogs 5-8) = assay: Example 11 Study 4: room diffusers over 24 hours; assay type: in vivo, dog; conditions: for heart rate and surface temperature of individual dogs: compared with Placebo, FIGS. 17A and 17B
Description: as §1, §2, §3, §4
In Study 4, putative pheromones were examined as room diffusers. Room diffusers were obtained and different liquid odors were applied over a 24 hour period. In contrast to Studies 1, 2, and 3, heart rates and behavior data were obtained over 24 hours (rather than just 2 hours after treatment application as in the other studies) and a baseline day was included in the dataset. Similar to Studies 1, 2, and 3, each dog experienced each treatment on different days in random order. The following treatment groups were evaluated: Baseline, Placebo Formula H Pheromone (SERG), DAP room diffuser (DAPRD; as available commercially) and the Rabbit Pheromone in diffuser form prepared in accordance with Example 4 (RPRD, 1 μg/mL). […]

[2] = 120 minutes after treatment, no startle, SERG, DAPC collars, RP spray 1 μg/mL

C/C=C(\C)C=O [RP, 2-methylbut-2-enal]
heart rate over 24 hours with collar (overall and individual dogs) (anxious dogs; baseline phase, versus Placebo, FIG. 19): increased the heart rate of dog 1 | heart rate after startle (individual dogs) (anxious dogs; collar, 110 dB Fog Horn startle, FIG. 20): Dogs 1 and 4 had reduced heart rate | decline in heart rate from hour of startle (hour 1) to next hour (hour 2), slope of regression (anxious dogs; collar, after startle, FIG. 21, placebo 15 bpm): 26.6 bpm | heart rate collected over 24 hours ([1]; basal testing, versus placebo, FIG. 22): increased heart rate | heart rate during startle ([1]; fog horn 2 second blast, versus control, FIG. 24): lower heart rate during startle compared to control dogs | change in dog behavior (dog): significant change in behavior towards a calmer demeanor | sitting over time versus other treatments (nervous dogs; 2-hour period after collar or spray, FIG. 3D): In the 60 minute period after treatment with rabbit pheromone, dogs also sat more than with the other treatments | average time dogs sat (nervous dogs; 30 minute period after spray, FIG. 3D): ~50 % of the time | Defecate (nervous dogs; [2]): 0 % of time | Drink (nervous dogs; [2]): 0.0 % of time | Eat (nervous dogs; [2]): 0.0 % of time | Lick self (nervous dogs; [2]): 0 % of time | Lying down (nervous dogs; [2]): 58.5 % of time | Pace-walk (nervous dogs; [2]): 7.6 % of time | Sitting (nervous dogs; [2]): 93.1 % of time | Standing (nervous dogs; [2]): 3.1 % of time | Urinate (nervous dogs; [2]): 0 % of time | pacing-walking behavior of individual dogs (nervous dogs; listed as RP spray): dog 7 showed reduced pacing-walking; also recorded: increased pacing-walking of dog 1 compared with the DAP collar | pacing-walking behavior of individual dogs (nervous dogs; listed as rabbit INTEROMONE® spray): Dog 3 increased pacing with Serg, but reduced its pacing with DAP collar and rabbit INTEROMONE® spray; also recorded: Dog 7's pacing was reduced by DAP collar and reduced even more by rabbit INTEROMONE® spray | lying down behavior / activity of individual dogs (nervous dogs; Study 1, compared with Placebo, FIG. 3B): For dog 2, both SERG and RP reduced lying down behavior significantly; also recorded: For dog 8, only RP increased dog activity and reduced lying down | sitting behavior of individual dogs (nervous dogs; Study 1, compared with Placebo, listed as RP spray): increased dog sitting in dogs 2 and 8 | sitting behavior of individual dogs (nervous dogs; Study 1, compared with Placebo, listed as rabbit pheromone): dogs 2 and 8 showed increased sitting | heart rate of individual dogs (nervous dogs): decreased the heart rates of dogs 3 and 4 compared to other treatments | heart rate of individual dogs (nervous dogs; listed as Rabbit pheromone): decreased heart rate in dog 3 | heart rate of individual dogs (nervous dogs; listed as rabbit pheromone spray): Dog 3 had decreased heart rate | speed of calming (nervous dogs; Study 1, spray versus collar): calms dogs faster than treatment with DAP collar | heart rate decline (slope of regression equation) (nervous dogs; dogs 1-4, FIG. 5, placebo 6 bpm/h): 24.5 bpm/h | overall dog heart rate and its decline (nervous dogs): had the greatest effect in decreasing dog heart rate | overall dog heart rate and its decline (nervous dogs; listed as rabbit pheromone): most significantly (P<0.05) reduced overall dog heart rate; also recorded: greater decline in heart rate than Placebo | TEMP (surface temperature) (nervous dogs (dogs 5-8); after room diffuser treatment, dogs 5-8, Placebo 30.9): 33.8 | HR (overall heart rate) (nervous dogs (dogs 5-8); after room diffuser treatment, dogs 5-8, Placebo 79.6): 108.4 | Defecate (nervous dogs (dogs 5-8); room diffuser, 24 hours): 0.18% of time | Drink (nervous dogs (dogs 5-8); room diffuser, 24 hours): 0.18% of time | Eat (nervous dogs (dogs 5-8); room diffuser, 24 hours): 0.26% of time | Lick self (nervous dogs (dogs 5-8); room diffuser, 24 hours): 0.09% of time | Lying down (nervous dogs (dogs 5-8); room diffuser, 24 hours): 87.0% of time | Pace- (nervous dogs (dogs 5-8); room diffuser, 24 hours): 5.67% of time | Sitting (nervous dogs (dogs 5-8); room diffuser, 24 hours): 5.00% of time | Standing (nervous dogs (dogs 5-8); room diffuser, 24 hours): 1.42% of time | Urinate (nervous dogs (dogs 5-8); room diffuser, 24 hours): 0.26% of time | drinking behavior of individual dogs (nervous dogs (dogs 5-8); room diffuser, FIG. 16): dog 7 showed increased drinking | heart rate and surface temperature of individual dogs (nervous dogs (dogs 5-8); room diffuser): increased the surface temperature of dog 7 compared to placebo | heart rate and surface temperature of individual dogs (nervous dogs (dogs 5-8); room diffuser, listed as rabbit pheromone): Dog 5 had elevated HR and surface temperature; also recorded: Dog 6 had increased heart rate and decreased surface temperature | heart rate of dog 5 (nervous dogs (dogs 5-8); room diffuser, increased to): about 200 bpm
